This passage reports GI50 and TGI results from PubChem BioAssay (NCI).

Among the test systems are CAKI-1 renal; UO-31 renal; SK-MEL-28 melanoma; SK-MEL-5 melanoma; OVCAR-8 ovarian; OVCAR-3 ovarian; HT29 colon; MDA-MB-231 breast; A549 NSCLC; COLO 205 colon.
Common to all, as to experiment: growth of human tumour cells (NCI), 48 h

Structures are written as SMILES. Where “and” joins values, the source holds several entries; their conditions need not be identical. Equal entries are not always repeated.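 Values below derive from 48-hour exposures of cells grown in 96-well plates, with endpoints linearly interpolated between the two concentrations bracketing the appropriate inhibition level. GI50: concentration for 50% inhibition of growth. TGI: concentration producing complete growth inhibition.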

`O=C(O)C(=O)CBr`: the GI50 is > 32.5 µM and 14.7 µM in the assay with CAKI-1 renal; > 38 µM and 17.3 µM in the assay on UO-31 renal; > 42.4 µM and 16.6 µM in the assay with SK-MEL-28 melanoma; > 100 µM and 65.8 µM with SK-MEL-5 melanoma; > 43.4 µM and 19.5 µM in the assay with OVCAR-8 ovarian; > 21.1 µM and 3.61 µM in the assay on OVCAR-3 ovarian. Moreover, the GI50 in the assay on HT29 colon was > 47.5 µM and 25.3 µM; in the assay with MDA-MB-231 breast, greater than 100 µM; with A549 NSCLC, > 100 µM and 25 µM; in the assay with COLO 205 colon it was > 70.1 µM and 17.6 µM. Further, the TGI in the assay with CAKI-1 renal is > 47.3 µM and 28 µM; with UO-31 renal, > 54.7 µM and 31.8 µM; in the assay on SK-MEL-28 melanoma, > 62.8 µM and 32.2 µM; in the assay on SK-MEL-5 melanoma it was greater than 100 µM; in the assay with OVCAR-8 ovarian, > 59.7 µM and 36.7 µM; with OVCAR-3 ovarian, > 40.2 µM and 13 µM. Moreover, the TGI in the assay with HT29 colon was > 76.8 µM and 62.5 µM; in the assay with MDA-MB-231 breast it was greater than 100 µM; in the assay with A549 NSCLC, > 100 µM and 52.2 µM; with COLO 205 colon, > 100 µM and 39.5 µM.

For the compound `NS(=O)(=O)c1ccc(NC(=O)Nc2ccccc2F)cc1`, the TGI with CAKI-1 renal, with UO-31 renal, in the assay on SK-MEL-28 melanoma, with SK-MEL-5 melanoma, in the assay with OVCAR-8 ovarian and in the assay on OVCAR-3 ovarian was greater than 100 µM throughout. Besides, the TGI in the assay on HT29 colon, in the assay on MDA-MB-231 breast, in the assay on A549 NSCLC and in the assay with COLO 205 colon was greater than 100 µM in each case.

On to `CC[C@H](NC(=O)[C@H](CS(=O)(=O)CC1CC1)N[C@@H](c1ccc(F)cc1)C(F)(F)F)C(=O)C(=O)NC1CC1`, for which the GI50 with CAKI-1 renal, in the assay on UO-31 renal, in the assay with SK-MEL-28 melanoma, in the assay on SK-MEL-5 melanoma, with OVCAR-8 ovarian and with OVCAR-3 ovarian was greater than 100 µM each time. For the same compound, the GI50 in the assay with HT29 colon is greater than 100 µM; in the assay with MDA-MB-231 breast, 93.1 µM; with A549 NSCLC, greater than 100 µM; in the assay with COLO 205 colon, greater than 100 µM. For the same compound, the TGI with CAKI-1 renal, in the assay with UO-31 renal, in the assay with SK-MEL-28 melanoma, with SK-MEL-5 melanoma, in the assay on OVCAR-8 ovarian and in the assay with OVCAR-3 ovarian was greater than 100 µM in each case. Besides, the TGI in the assay with HT29 colon, in the assay with MDA-MB-231 breast, in the assay with A549 NSCLC and with COLO 205 colon was greater than 100 µM in each case.

Take `C=CCCC(=O)N1C=CC(=O)[C@H](O)[C@@H]1/C=C/c1ccccc1`: the GI50 in the assay with CAKI-1 renal is 25.1 µM; in the assay with UO-31 renal it was 4.25 µM; with SK-MEL-28 melanoma, 17.4 µM; with SK-MEL-5 melanoma it was 3.93 µM; with OVCAR-8 ovarian, 16 µM; with OVCAR-3 ovarian, 6.13 µM. Further, the GI50 in the assay with HT29 colon is 14.4 µM; in the assay with MDA-MB-231 breast it was 18.6 µM; in the assay on A549 NSCLC, 18.2 µM; in the assay with COLO 205 colon it was 10.9 µM. The TGI with CAKI-1 renal was greater than 32.5 µM; in the assay on UO-31 renal, greater than 32.5 µM; in the assay on SK-MEL-28 melanoma, greater than 32.5 µM; in the assay on SK-MEL-5 melanoma it was 12.3 µM; with OVCAR-8 ovarian, greater than 32.5 µM; with OVCAR-3 ovarian, greater than 32.5 µM. The TGI in the assay with HT29 colon, with MDA-MB-231 breast, with A549 NSCLC and in the assay with COLO 205 colon was greater than 32.5 µM each time.

As to `Cn1ncc(-c2ccc3c(=O)[nH]nc(CN)c3c2)c1-c1c(F)cc2ccccc2c1C#N`, the GI50 in the assay on CAKI-1 renal was 5.53 µM; with UO-31 renal, 7.62 µM; in the assay with SK-MEL-28 melanoma, 10.6 µM; in the assay on SK-MEL-5 melanoma it was 11 µM; with OVCAR-8 ovarian, 4.34 µM; in the assay on OVCAR-3 ovarian, 6.53 µM. Also, the GI50 in the assay on HT29 colon is 3.34 µM; in the assay on MDA-MB-231 breast, 8.53 µM; with A549 NSCLC, 5.14 µM; with COLO 205 colon, 4.8 µM. Besides, the TGI amounted to 19 µM in the assay on CAKI-1 renal; 20.6 µM in the assay on UO-31 renal; 23 µM in the assay with SK-MEL-28 melanoma; 22.9 µM with SK-MEL-5 melanoma; 17.5 µM with OVCAR-8 ovarian; 19.5 µM in the assay with OVCAR-3 ovarian. For the same compound, the TGI was 14.5 µM in the assay with HT29 colon, 23.4 µM in the assay with MDA-MB-231 breast, 18.3 µM in the assay on A549 NSCLC and 18.3 µM in the assay with COLO 205 colon.

As for `COc1ccc2c(c1)CC[C@@H]1[C@@H]2CC[C@]2(C)C=C(/C=C/C(=O)c3ccccc3)C[C@@H]12`, the GI50 in the assay on CAKI-1 renal was 20.3 µM; in the assay with UO-31 renal it was 15.2 µM; in the assay on SK-MEL-28 melanoma, 16.2 µM; in the assay with SK-MEL-5 melanoma it was 14 µM; with OVCAR-8 ovarian, 31.2 µM; in the assay on OVCAR-3 ovarian it was 16.2 µM. Besides, the GI50 is 17 µM in the assay with HT29 colon, 17.2 µM in the assay with MDA-MB-231 breast, 18.5 µM in the assay on A549 NSCLC and 19.7 µM in the assay with COLO 205 colon. For the same compound, the TGI with CAKI-1 renal is 38.3 µM; in the assay on UO-31 renal, 30.1 µM; in the assay with SK-MEL-28 melanoma, 31.7 µM; in the assay on SK-MEL-5 melanoma, 27.2 µM; in the assay with OVCAR-8 ovarian, greater than 100 µM; in the assay on OVCAR-3 ovarian, 31.7 µM. Besides, the TGI in the assay with HT29 colon came to 35.7 µM; with MDA-MB-231 breast it was 32.1 µM; in the assay with A549 NSCLC it was 40.2 µM; with COLO 205 colon, 40.4 µM.

On to `COc1cc([C@@H]2c3cc4c(cc3C(OC3O[C@@H]5COC(C)O[C@H]5[C@H](O)[C@H]3O)C3COC(=O)[C@@H]32)OCO4)cc(OC)c1O` (stereo not given in full), for which the GI50 is 1.83 µM in the assay with CAKI-1 renal; 3 µM in the assay on UO-31 renal; 2.12 µM with SK-MEL-28 melanoma; 0.861 µM with SK-MEL-5 melanoma; 1.56 µM in the assay on OVCAR-8 ovarian; 4.8 µM in the assay on OVCAR-3 ovarian. For the same compound, the GI50 in the assay with HT29 colon is 5.42 µM; with MDA-MB-231 breast, 7.25 µM; with A549 NSCLC it was 0.363 µM; in the assay on COLO 205 colon, 3.68 µM. Also, the TGI in the assay with CAKI-1 renal was greater than 28.1 µM; in the assay on UO-31 renal, 31.6 µM; with SK-MEL-28 melanoma, greater than 34.6 µM; in the assay with SK-MEL-5 melanoma it was 7.96 µM; with OVCAR-8 ovarian, greater than 34.8 µM; in the assay on OVCAR-3 ovarian, greater than 28 µM. The TGI with HT29 colon was 20.3 µM; in the assay on MDA-MB-231 breast it was greater than 40.4 µM; in the assay on A549 NSCLC, greater than 39.1 µM; in the assay on COLO 205 colon, 21.3 µM.

For `Nc1c(C(=O)Nc2cccc(Br)c2)sc2nc3c(cc12)C(O)CCC3` (stereo not given), the GI50 with CAKI-1 renal was 0.439 µM; in the assay on UO-31 renal it was 0.685 µM; in the assay on SK-MEL-28 melanoma it was 4.43 µM; in the assay on SK-MEL-5 melanoma, 0.455 µM; with OVCAR-8 ovarian, 0.77 µM; in the assay with OVCAR-3 ovarian, 0.32 µM. For the same compound, the GI50 in the assay with HT29 colon is 0.319 µM; in the assay with MDA-MB-231 breast it was 2.24 µM; with A549 NSCLC, 0.494 µM; in the assay on COLO 205 colon, 0.41 µM. For the same compound, the TGI in the assay on CAKI-1 renal was greater than 100 µM; in the assay with UO-31 renal, 40.3 µM; in the assay with SK-MEL-28 melanoma, greater than 100 µM; in the assay with SK-MEL-5 melanoma, greater than 45.4 µM; in the assay on OVCAR-8 ovarian, 37.6 µM; with OVCAR-3 ovarian, 3.08 µM. The TGI in the assay on HT29 colon is 11 µM; in the assay with MDA-MB-231 breast, greater than 85.7 µM; in the assay with A549 NSCLC, 22 µM; in the assay on COLO 205 colon it was greater than 32 µM.

On to `Cc1sc2ncn(Cc3ccc(Cl)c(Cl)c3)c(=O)c2c1C`, for which the GI50 with CAKI-1 renal is 3.47 µM; in the assay with UO-31 renal it was 31.4 µM; with SK-MEL-28 melanoma, 77.9 µM; in the assay with SK-MEL-5 melanoma it was 54.4 µM; in the assay on OVCAR-8 ovarian, 50.8 µM; in the assay on OVCAR-3 ovarian, 8.04 µM. In addition, the GI50 with HT29 colon was 77.7 µM; with MDA-MB-231 breast, 24.7 µM; in the assay on A549 NSCLC it was 31.3 µM; in the assay on COLO 205 colon, 63.2 µM. The TGI is 32.9 µM in the assay on CAKI-1 renal; greater than 100 µM with UO-31 renal; greater than 100 µM in the assay on SK-MEL-28 melanoma; greater than 100 µM with SK-MEL-5 melanoma; greater than 100 µM in the assay on OVCAR-8 ovarian; 38.3 µM with OVCAR-3 ovarian. For the same compound, the TGI in the assay on HT29 colon was greater than 100 µM; in the assay on MDA-MB-231 breast, 77.9 µM; in the assay on A549 NSCLC it was greater than 100 µM; in the assay with COLO 205 colon it was greater than 100 µM.

For the compound `O=c1c2c3c(sc2n2c(-c4ccc(Br)cc4)nnc2n1Cc1ccccc1)CCCC3`, the GI50 in the assay on CAKI-1 renal was 6.02 µM; with UO-31 renal, 11.3 µM; with SK-MEL-28 melanoma it was 6.19 µM; with SK-MEL-5 melanoma, 3.8 µM; with OVCAR-8 ovarian, 15.5 µM; with OVCAR-3 ovarian, 6.24 µM. The GI50 in the assay on HT29 colon is 20.6 µM; in the assay on MDA-MB-231 breast, 3.39 µM; in the assay on A549 NSCLC it was 12.4 µM; with COLO 205 colon, 8.24 µM. In addition, the TGI with CAKI-1 renal was found to be 22.4 µM; in the assay on UO-31 renal, 41.1 µM; with SK-MEL-28 melanoma it was 19.9 µM; with SK-MEL-5 melanoma, 14.3 µM; in the assay with OVCAR-8 ovarian, 37 µM; with OVCAR-3 ovarian, 20 µM. Also, the TGI came out at 58.7 µM in the assay on HT29 colon, 16.6 µM with MDA-MB-231 breast, 24.8 µM with A549 NSCLC and 22.8 µM in the assay on COLO 205 colon.

Consider `COC(=O)[C@]12CC[C@@H](C)[C@H](C)[C@@H]1C1=CC[C@@H]3[C@@]4(C)CC(=O)[C@H](OC(=O)c5ccco5)[C@@]5(C)COC(=C45)C[C@@]3(C)[C@]1(C)CC2`, for which the GI50 in the assay with CAKI-1 renal is 0.729 µM; in the assay with UO-31 renal, 1.7 µM; in the assay with SK-MEL-28 melanoma, 0.579 µM; in the assay with SK-MEL-5 melanoma, 0.414 µM; in the assay on OVCAR-8 ovarian, 2.47 µM; with OVCAR-3 ovarian, 2.74 µM. In addition, the GI50 with HT29 colon is 0.523 µM; in the assay on MDA-MB-231 breast, 5.11 µM; with A549 NSCLC, 6.31 µM; with COLO 205 colon, 0.342 µM. Further, the TGI in the assay with CAKI-1 renal was greater than 100 µM; in the assay with UO-31 renal, greater than 100 µM; with SK-MEL-28 melanoma it was greater than 100 µM; in the assay on SK-MEL-5 melanoma it was 2.54 µM; in the assay on OVCAR-8 ovarian, greater than 100 µM; with OVCAR-3 ovarian it was greater than 100 µM. The TGI was greater than 100 µM in the assay with HT29 colon, greater than 100 µM with MDA-MB-231 breast, greater than 100 µM with A549 NSCLC and 2.93 µM in the assay with COLO 205 colon.
